Source: patent US12404283B2, “c-MYC mRNA translation modulators and uses thereof in the treatment of cancer” (Anima Biotech Inc., priority 2022, dated 2025)

Tested on: c-Myc
Assay: c-Myc immunofluorescence assay
Format: cell-based, human
Conditions: A549 cells, 24 hours treatment, anti-c-Myc immunofluorescence
Summary of the method: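 A549 cells grown 48 h, exposed 24 h to rising compound concentrations, then fixed, permeabilised and stained for c-Myc plus DAPI. Nuclear-segmented c-Myc fluorescence quantified by high-content imaging at 20×; EC50 from logistic dose–response fits.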

## CCN(CC)CCCNC(=O)c1ccc2c(c1)sc1nc(-c3ccc(C4(N)CC4)cc3)nn12 [compound 397, 2-(4-(1-aminocyclopropyl)phenyl)-N-(3-(diethylamino)propyl)benzo [4,5]thiazolo[3,2-b][1,2,4]triazole-6-carboxamide]
  Myc Efficacy (−LogEC50): ++ (++ ≥5 and <6)

## NC1(c2ccc(-c3nc4sc5cc(C(=O)NCCCN6CCCCC6)ccc5n4n3)cc2)CC1 [compound 398, 2-(4-(1-aminocyclopropyl)phenyl)-N-(3-(piperidin-1-yl)propyl)benzo[4,5]thiazolo [3,2-b][1,2,4]triazole-6-carboxamide]
  Myc Efficacy (−LogEC50): ++ (++ ≥5 and <6)

## CNC(=O)c1ccc(-c2cn3c(n2)sc2cc(C(=O)NCCCN4CCCCC4)ncc23)cc1 [compound 406, 2-(4-(methylcarbamoyl)phenyl)-N-(3-(piperidin-1-yl)propyl)imidazo[2′,1′:2,3] thiazolo[4,5-c]pyridine-7-carboxamide]
  Myc Efficacy (−LogEC50): ++ (++ ≥5 and <6)

## O=C(NCCCN1CCCCC1)c1ccc2c(c1)sc1nc(-c3ccc([C@H]4CCCN4)cc3)cn12 [compound 412, (R)-N-(3-(piperidin-1-yl)propyl)-2-(4-(pyrrolidin-2-yl)phenyl)benzo[d]imidazo [2,1-b]thiazole-7-carboxamide]
  Myc Efficacy (−LogEC50): +++ (+++ ≥6)

## O=C(NCCCN1CCCCC1)c1ccc2c(c1)sc1nc(-c3ccc([C@@H]4CCCN4)cc3)cn12 [compound 413, (S)-N-(3-(piperidin-1-yl)propyl)-2-(4-(pyrrolidin-2-yl)phenyl)benzo[d]imidazo [2,1-b]thiazole-7-carboxamide]
  Myc Efficacy (−LogEC50): +++ (+++ ≥6)

## CCN(CC)CCCNC(=O)c1ccc2c(c1)sc1nc(-c3ccc([C@H]4CCCN4)cc3)cn12 [compound 414, (R)-N-(3-(diethylamino)propyl)-2-(4-(pyrrolidin-2-yl)phenyl)benzo[d]imidazo [2,1-b]thiazole-7-carboxamide]
  Myc Efficacy (−LogEC50): +++ (+++ ≥6)

## CCN(CC)CCCNC(=O)c1ccc2c(c1)sc1nc(-c3ccc([C@@H]4CCCN4)cc3)cn12 [compound 415, (S)-N-(3-(diethylamino)propyl)-2-(4-(pyrrolidin-2-yl)phenyl)benzo[d]imidazo [2,1-b]thiazole-7-carboxamide]
  Myc Efficacy (−LogEC50): +++ (+++ ≥6)

## O=C(NCCCN1CCCCC1)c1ccc2c(c1)sc1nc(-c3ccc(C4CCCN4)cc3F)cn12 (stereo not shown) [compound 416, 2-(2-fluoro-4-(pyrrolidin-2-yl)phenyl)-N-(3-(piperidin-1-yl)propyl)benzo[d]imidazo [2,1-b]thiazole-7-carboxamide]
  Myc Efficacy (−LogEC50): +++ (+++ ≥6)

## O=C(NCCCN1CCCCC1)c1ccc2c(c1)sc1nc(-c3ccc([C@H]4CCCN4)cc3F)cn12 [compound 417, (R)-2-(2-fluoro-4-(pyrrolidin-2-yl)phenyl)-N-(3-(piperidin-1-yl)propyl)benzo[d]imidazo [2,1-b]thiazole-7-carboxamide]
  Myc Efficacy (−LogEC50): +++ (+++ ≥6)

## O=C(NCCCN1CCCCC1)c1ccc2c(c1)sc1nc(-c3ccc([C@@H]4CCCN4)cc3F)cn12 [compound 418, (S)-2-(2-fluoro-4-(pyrrolidin-2-yl)phenyl)-N-(3-(piperidin-1-yl)propyl)benzo[d]imidazo [2,1-b]thiazole-7-carboxamide]
  Myc Efficacy (−LogEC50): +++ (+++ ≥6)

## O=C(NCCCN1CCC(F)CC1)c1ccc2c(c1)sc1nc(-c3ccc([C@H]4CCCN4)cc3F)cn12 [compound 419, (R)-2-(2-fluoro-4-(pyrrolidin-2-yl)phenyl)-N-(3-(4-fluoropiperidin-1-yl)propyl)benzo[d]imidazo [2,1-b]thiazole-7-carboxamide]
  Myc Efficacy (−LogEC50): +++ (+++ ≥6)

## O=C(NCCCN1CCC(F)CC1)c1ccc2c(c1)sc1nc(-c3ccc([C@@H]4CCCN4)cc3F)cn12 [compound 420, (S)-2-(2-fluoro-4-(pyrrolidin-2-yl)phenyl)-N-(3-(4-fluoropiperidin-1-yl)propyl)benzo[d]imidazo [2,1-b]thiazole-7-carboxamide]
  Myc Efficacy (−LogEC50): +++ (+++ ≥6)

## O=C(NCCCN1CCCCC1)c1ccc2c(c1)sc1nc(-c3ccc([C@H]4CCCN4)cc3F)nn12 [compound 421, (R)-2-(2-fluoro-4-(pyrrolidin-2-yl)phenyl)-N-(3-(piperidin-1-yl)propyl)benzo[4,5]thiazolo [3,2-b][1,2,4]triazole-6-carboxamide]
  Myc Efficacy (−LogEC50): ++ (++ ≥5 and <6)

## O=C(NCCCN1CCCCC1)c1ccc2c(c1)sc1nc(-c3ccc([C@@H]4CCCN4)cc3F)nn12 [compound 422, (S)-2-(2-fluoro-4-(pyrrolidin-2-yl)phenyl)-N-(3-(piperidin-1-yl)propyl)benzo[4,5]thiazolo [3,2-b][1,2,4]triazole-6-carboxamide]
  Myc Efficacy (−LogEC50): +++ (+++ ≥6)

## O=C(NCCCN1CCC(F)CC1)c1ccc2c(c1)sc1nc(-c3ccc(C4(O)COC4)cc3F)cn12 [compound 425]
  Myc Efficacy (−LogEC50): +++ (+++ ≥6)

## O=C(NCCCN1CCC(F)CC1)c1ccc2c(c1)sc1nc(-c3cc4c(cc3F)CNC4)cn12 [compound 454, 2-(6-fluoroisoindolin-5-yl)-N-(3-(4-fluoropiperidin-1-yl)propyl)benzo[d]imidazo [2,1-b]thiazole-7-carboxamide]
  Myc Efficacy (−LogEC50): +++ (+++ ≥6)

## O=C(NCCCN1CCC(F)CC1)c1ccc2c(c1)sc1nc(-c3c(F)cc(C4CCCN4)cc3C3CC3)cn12 (stereo not shown) [compound 475, 2-(2-cyclopropyl-6-fluoro-4-(pyrrolidin-2-yl)phenyl)-N-(3-(4-fluoropiperidin-1-yl)propyl)benzo[d]imidazo[2,1-b]thiazole-7-carboxamide]
  Myc Efficacy (−LogEC50): ++ (++ ≥5 and <6)

## O=C(NCCCN1CCC(F)CC1)c1ccc2c(c1)sc1nc(-c3cc(F)c(C4CCCN4)cc3F)cn12 (stereo not shown) [compound 477, 2-(2,5-difluoro-4-(pyrrolidin-2-yl)phenyl)-N-(3-(4-fluoropiperidin-1-yl)propyl)benzo[d]imidazo[2,1-b]thiazole-7-carboxamide]
  Myc Efficacy (−LogEC50): +++ (+++ ≥6)

## O=C(NCCCN1CCC(F)CC1)c1ccc2c(c1)sc1nc(-c3ccc(-c4ncc[nH]4)cc3F)cn12 [compound 482, 2-(2-fluoro-4-(1H-imidazol-2-yl)phenyl)-N-(3-(4-fluoropiperidin-1-yl)propyl)benzo[d]imidazo[2,1-b]thiazole-7-carboxamide]
  Myc Efficacy (−LogEC50): +++ (+++ ≥6)

## O=C(NCCCN1CCC(F)CC1)c1ccc2c(c1)sc1nc(-c3cc(F)c(C4CCCN4)c(Cl)c3)cn12 (stereo not shown) [compound 485, 2-(3-chloro-5-fluoro-4-(pyrrolidin-2-yl)phenyl)-N-(3-(4-fluoropiperidin-1-yl)propyl)benzo[d]imidazo[2,1-b]thiazole-7-carboxamide]
  Myc Efficacy (−LogEC50): +++ (+++ ≥6)

## O=C1CCCC(c2ccc(-c3cn4c(n3)sc3cc(C(=O)NCCCN5CCC(F)CC5)ccc34)c(F)c2)N1 (stereo not shown) [compound 486]
  Myc Efficacy (−LogEC50): ++ (++ ≥5 and <6)

## O=C(NCCCN1CCC(F)CC1)c1ccc2c(c1)sc1nc(-c3ccc(-c4ccn[nH]4)cc3F)cn12 [compound 487, 2-(2-fluoro-4-(1H-pyrazol-5-yl)phenyl)-N-(3-(4-fluoropiperidin-1-yl)propyl)benzo[d]imidazo[2,1-b]thiazole-7-carboxamide]
  Myc Efficacy (−LogEC50): ++ (++ ≥5 and <6)
